According to patent publication US20220133747A1, “ESTROGEN RECEPTOR INHIBITORS AND USES THEROF” (The Regents of the University of California, priority 2018, published 2022):
Entries after “also recorded” stand apart in the source; their conditions may differ. Like-named read-outs stand apart in the source and are kept apart here.

Legend:
[1] = Screen of SERD candidates in antitumor assays, comparison with fulvestrant; details: a number of antitumor assays
Excerpt: We designed, synthesized and screened more than 65 new SERD candidates, all of which have the general structure shown in 1′, namely 11β-aryloxy estradiols, with a basic amine positioned at the 4-position of the aryl ring (FIG. 16). The basic amine is connected to the aryl unit either directly or via a spacer that varies from 3-6 atoms. […] We note that this new class of steroid-like SERDs lack the prototypical side chain (as in fulvestrant) widely used to design other drugs with ERα antagonism, but these SERD candidates generate a full antagonist profile and induce significant ERα down-regulation, likely similar to significant ‘indirect’ receptor antagonism as reported in previous independent studies of 11β-substitutions in ERα [51, 52] and other structural changes as in an independent report.

MCF-7 cells = assay: Cell proliferation assay, MCF-7 (MCF-7/PAR); assay type: cell-based, human; details: 10 nM with 2 nM estradiol-17β, 48 hr
ERα = biological target: T1, ERα (Homo sapiens, UniProt P03372); assay: Downregulation of ER protein, PAGE and Western immunoblot in MCF-7 cells; assay type: cell-based; details: 100 nM, 4 hours, phenol-red free medium without FBS
T1 construct: endogenous in cells; host or cells: MCF-7 human breast cancer cells (ATCC)
T1 sequence (P03372 1-595): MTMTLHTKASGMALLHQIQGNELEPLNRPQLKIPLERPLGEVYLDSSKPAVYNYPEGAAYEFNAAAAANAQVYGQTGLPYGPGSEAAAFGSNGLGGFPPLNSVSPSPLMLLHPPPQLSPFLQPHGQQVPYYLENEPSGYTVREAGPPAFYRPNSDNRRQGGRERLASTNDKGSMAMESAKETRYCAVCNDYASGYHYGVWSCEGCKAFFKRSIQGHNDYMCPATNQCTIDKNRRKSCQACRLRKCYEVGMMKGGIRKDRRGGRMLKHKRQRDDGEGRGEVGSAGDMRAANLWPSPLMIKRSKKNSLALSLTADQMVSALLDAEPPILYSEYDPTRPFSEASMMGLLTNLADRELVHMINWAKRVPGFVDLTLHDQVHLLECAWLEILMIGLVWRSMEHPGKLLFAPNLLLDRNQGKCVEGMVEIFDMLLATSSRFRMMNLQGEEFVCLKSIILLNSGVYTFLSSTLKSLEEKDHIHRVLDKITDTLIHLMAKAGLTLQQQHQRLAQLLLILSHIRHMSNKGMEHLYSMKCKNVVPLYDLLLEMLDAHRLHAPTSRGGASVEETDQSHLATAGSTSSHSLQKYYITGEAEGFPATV
Procedure: FIGS. 20A-20C show biologic activity of selected SERD candidates. […] ER-positive MCF-7 cells were treated in phenol-red free RPMI 1640 without FBS and containing vehicle control (CON) or 100 nM concentrations of either fulvestrant (FX) or antiestrogens 105, 109, 121, 140, 151, 160 or SERD128 in vitro. After 4 hours, cells were harvested and processed for PAGE and Western immunoblots using ERα antibody (1D5, Thermofisher Scientific). RPL13A was used as a loading control. […] Cells were dosed with either E2 alone or with SERDs combined with E2 in phenol redfree medium with 0.1% dextran-coated charcoal-treated FBS in luminometer plates. Data are presented as relative light units (RLU) relative to that of E2 alone in three replicate assays (4 wells per replicate) f SEM. Treatment with E2 alone induced a 12-fold induction of ER-dependent luciferase activity quantified as RLU relative to vehicle control-treated samples.
MCF7 cells were plated in regular medium. After 24 hrs, cells were incubated in the presence of antiestrogens or fulvestrant for 4 hrs in phenol-red free medium without FBS. Cell lysates were prepared using RIPA buffer, and protein concentration was determined using the BCA Protein Assay Kit (PIERCE/ThermoFisher Scientific). Forty micrograms of total cell protein was resolved by 4-15% SDS-PAGE, transferred to a PVDF membrane and probed with antibody directed against ERα (1D5, 1:100, ThermoFisher cat #MA5-13191). RPL13A (dilution 1:1000, Invitrogen/ThermoFisher cat #PA5-58528) was used as loading control.

[2] = tested on: immune cell subsets in 4T1 tumors; assay: Mass cytometry (CyTOF) of immune cell subsets in 4T1 tumors; assay type: in vivo, BALB/c mice
Procedure: Single cell suspensions were prepared from 4T1 tumors grown in BALC/c mice treated for 12 days with control (CON), 100 μg of anti-PD-L1 antibody Q3 days (PD-L1), 50 mg/kg SERD128 via oral gavage (SERD128) or combined (PD-L1+SERD128). Cells were labeled with specific antibodies and analyzed by mass cytometry (cyTOF).
Cells were labeled with specific antibodies and analyzed by mass cytometry (CyTOF).
Tumors from each mouse were harvested after 10-12 days of treatment as described above. Single cell suspensions were generated from tumors using the MACS mouse tumor dissociation kit (Miltenyi Biotech Cat. 130-096-730) following manufacturer's instructions. One million cells per tumor were resuspended in PBS and labeled with Cell-ID Cisplatin (Fluidigm, Cat. 201064) to assess for live/dead cells. For antibody labeling, we used the recommended cell surface staining procedure (Fluidigm) followed by the FoxP3/Transcription Staining Buffer Set protocol (eBiosciences™). Cells were labeled with a panel of 28 metal-conjugated antibodies to determine different immune lineages in addition to memory, trafficking, activation, and exhaustion markers (see Tables 2-3 for list of antibodies). After washing and centrifugation, cells were fixed using MaxPar Fix and Perm buffer (Fluidigm, Cat. 201067) and labelled for single cell discrimination with Cell-ID Intercalator-Ir (Fluidigm, Cat. 201192A). Samples were resuspended with 10% EQ four-element calibration beads (Fluidigm, Cat. 201078), and filtered through a 40 μm mesh filter prior to acquisition on a HELIOS' mass cytometer (Fluidigm), at a rate of 300-500 events/s.
Collected mass cytometry data was analyzed as previously described. Briefly, samples were normalized utilizing a bead standard. First, each cytometry file was processed in FLOWJO (v10.3), then manually gated for stability of signal over time, followed by exclusion of normalization beads, ratio of DNA intercalators (191Ir+vs 193Ir+), with finally single cell events (Ir193 vs event length) (FIG. 24A). After that, viable (195Pt−)CD45+ events were exported and uploaded into the X-shift (VorteX) clustering environment to obtain the k-nearest-neighbor density estimation as described before. Dimensionality reduction of unclustered data was performed using the t-stochastic neighborhood embedding (t-SNE) and PhenoGraph algorithms implemented in the Cytofkit library, supplied by BIOCONDUCTOR v.3.4 and run in RSTUDIO v.1.1.463. A fixed number of 10,000 cells were sampled without replacement from each file and combined for analysis. Resulting t-SNE plots were subsequently filtered by marker expression to visualize differences between different treatment groups. Heatmaps were generated using Z-scores based on median marker expression (excel and Prism v7).

MCF-7/TMR cells = assay: Cell proliferation assay, MCF-7 with tamoxifen resistance; assay type: cell-based, human; details: 10 nM with 2 nM estradiol-17β, 48 hr

Structure (SMILES)	activity relative to fulvestrant [1]	cell proliferation (% of estradiol-treated controls) (MCF-7 cells)	downregulation of ER protein (ERα protein levels) (ERα)	downregulation of ER protein (ERα protein levels) (ERα; listed as 128)	B regulatory cells (CD19+ CD25+ CD69+, gated on CD19+) [2]	M1 macrophages (MHCII high) [2]	M2 macrophages (MHCII low) [2]	markers of CD8+ TIL activation and/or proliferation [2]	stimulatory/myeloid dendritic cells (mDCs) [2]	total dendritic cells (CD11c+MHCII+) [2]	markers of CD8+ TIL activation and/or proliferation ([2]; listed as S128)	cell proliferation (% of estradiol-treated controls) (MCF-7/TMR cells)
C[C@]12C[C@H](Oc3ccc(N)c(C(F)(F)F)c3)[C@@H]3c4ccc(O)cc4CC[C@H]3[C@@H]1CC[C@@H]2O [SERD128, (8S,9S,11S,13S,14S,17S)-11-(4-Amino-3-(trifluoromethyl)phenoxy)-13-methyl-7,8,9,11,12,13,14,15,16,17-decahydro-6H-cyclopenta[a]phenanthrene-3,17-diol]	more potent than fulvestrant	significantly blocked proliferation; also recorded: significantly inhibited; also recorded: antiproliferative action	comparable to that of the pure antiestrogen fulvestrant	most effective in reducing ER protein levels; also recorded: comparable to that of fulvestrant	decreases expression of B regulatory cells; also recorded: decrease expression of this subpopulation	increase in the M1 tumoricidal population of macrophages; also recorded: increases the ER+M1-tumoricidal subset of macrophages	notable decrease in the M2 phenotype; also recorded: reduces the M2-phenotype	promotes enhanced proliferation and activation of CD8^+ T-cells	increase expression of total dendritic cells (DC) and their stimulatory/myeloid subgroup; also recorded: increased population of mDCs	increase expression of total dendritic cells; also recorded: increased population of mDCs in 4T1 tumors as well as the total population of DCs	increased	significantly blocked proliferation; also recorded: antiproliferative action
C[C@]12CC[C@@H]3c4ccc(O)cc4C[C@@H](CCCCCCCCC[S+]([O-])CCCC(F)(F)C(F)(F)F)[C@H]3[C@@H]1CC[C@@H]2O (stereo partly shown) [fulvestrant, reference compound]										increased the population of DCs in 4T1 tumors		
